From ChEMBL document CHEMBL1201862, “PubChem BioAssay data set” (2004)
Where “and” joins values, the source holds several entries; their conditions need not be identical. Identical values can stand only once. Calls of active or inactive are those of the source.

What was measured:
Cytochrome P450 2D6 = Cytochrome P450 2D6 (Homo sapiens, UniProt P10635);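 also: CYP2D6 member of a cytochrome P450 panel assay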
Cytochrome P450 3A4 = Cytochrome P450 3A4 (Homo sapiens, UniProt P08684);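 also: CYP3A4 tested as one member of a cytochrome P450 panel screen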
Cytochrome P450 2C9 = Cytochrome P450 2C9 (Homo sapiens, UniProt P11712)
[1] = molecular target: T1, Polyadenylate-binding protein 1 (Homo sapiens, UniProt P11940); test: MLLE binding blockers, Cy5 peptide tracer – biochemical, fluorescence polarization, Cy5-PAM2 peptide, secondary, miRNA deadenylation inhibitor project, dose response (AID 602260); type: functional; conditions: read-out: IC50_Mean
[2] = molecular target: T1, Polyadenylate-binding protein 1; test: MLLE domain peptide-binding blockers, IC50 – biochemical, fluorescence polarization, FITC-PAM2 peptide, dose response (AID 602259); type: functional; conditions: read-out: IC50_Mean
H4 = test: Luminescence Cell-Based Dose Response HTS to Identify Activators of 5'UTR Stem-Loop Driven Prion Protein mRNA Translation in H4 Neuroglioblastoma Cells. [Related pubchem assays: 1829 (Project Summary), 1814 (Primary HTS)]; type: functional; conditions: Homo sapiens
[3] = Luminescence Cell-Based Dose Confirmation HTS to Identify Activators of 5'UTR Stem-Loop Driven Alpha-Synuclein mRNA Translation in H4 Neuroglioblastoma Cells. [Related pubchem assays: 1829 (Project Summary), 1814 (Primary HTS)]; type: functional
[4] = Luminescence Cell-Based Dose Response HTS to Identify Activators of Luciferase Translation or Activity in H4 […] Cells. [Related pubchem assays: 1829 (Project Summary), 1814 (Primary HTS)]; type: functional
H9c2 = test: cells; type: functional, cell-based; conditions: Rattus norvegicus, H9c2, Myocardium;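 also: confirmatory concentration-response retest of ultra-high-throughput screening hits for modulation of myocardial damage; cell death induced by hydrogen peroxide oxidative stress; compound pretreatment for 60 min then peroxide exposure for 2 h; potency is for protecting the cells against peroxide damage rather than for killing them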
Cytochrome P450 2C19 = Cytochrome P450 2C19 (Homo sapiens, UniProt P33261); test: Cytochrome panel assay with activity outcomes. Panel member name: p450-cyp2c19 Compounds with AC50 equal or less than 10 uM are considered active; type: functional; conditions: read-out: AC50
[5] = molecular target: T2, Heat shock factor protein 1 (Mus musculus, UniProt P38532); test: enhancement of HSF1-driven luciferase signal – cell-based, NIH3T3, luminescence, dose retest, confirmation (AID 435004); type: functional;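 also: stress induced by proteasome inhibitor MG132 added 30 min after compound; luciferase reporter driven by HSF1 response element in NIH3T3 cells; actives raise luminescence as potentiators of the MG132 stress response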
T2 sequence (P38532 whole entry): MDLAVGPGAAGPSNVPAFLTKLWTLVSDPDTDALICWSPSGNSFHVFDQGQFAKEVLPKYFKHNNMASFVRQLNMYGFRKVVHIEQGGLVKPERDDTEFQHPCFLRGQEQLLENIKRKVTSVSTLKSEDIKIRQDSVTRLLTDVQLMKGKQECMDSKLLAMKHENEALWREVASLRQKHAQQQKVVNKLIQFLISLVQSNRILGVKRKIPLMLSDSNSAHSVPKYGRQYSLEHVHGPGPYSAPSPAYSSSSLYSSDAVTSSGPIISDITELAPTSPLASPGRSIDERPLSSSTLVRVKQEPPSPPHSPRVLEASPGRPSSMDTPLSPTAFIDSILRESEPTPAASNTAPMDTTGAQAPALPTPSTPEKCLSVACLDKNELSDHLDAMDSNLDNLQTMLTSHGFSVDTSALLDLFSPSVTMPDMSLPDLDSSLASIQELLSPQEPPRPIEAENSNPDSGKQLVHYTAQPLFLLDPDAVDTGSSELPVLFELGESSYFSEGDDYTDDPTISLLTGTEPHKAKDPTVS

INS1 = test: INS-1E survival protection against cytokine death – cell-based, luminescence, retest, dose response (AID 449756); type: functional; conditions: Rattus norvegicus;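 also: cell death triggered by IL-1 beta plus TNF-alpha plus IFN-gamma mixture; protective hits raise ATP signal compared with cytokine alone wells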
[6] = alpha-synuclein stem-loop luciferase translation blockers – H4 neuroglioma cells, luminescence, confirmation (AID 1988); type: functional, cell-based
Streptococcus = test: GAS UMAA2166 growth inhibition – luminescence, BacTiterGlo, counter-screen for streptokinase expression inhibitor project, dose response (AID 1915); type: functional, organism-based;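 also: potency for reduction of bacterial viability or growth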
[7] = luciferase reporter signal suppression in cells – H4 neuroglioma cells, luminescence, dose response (AID 1990); type: functional, cell-based
Streptokinase A = molecular target: T3, Streptokinase A (Streptococcus pyogenes serotype M1, UniProt P10520); test: viability-normalized secreted streptokinase activity reduction – plasminogen activation absorbance, OD405, dose response (AID 1914); type: functional, Streptococcus pyogenes M1 GAS;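 also: secreted streptokinase activity via plasminogen activation per viability signal from cell pellet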
T3 sequence (P10520 whole entry): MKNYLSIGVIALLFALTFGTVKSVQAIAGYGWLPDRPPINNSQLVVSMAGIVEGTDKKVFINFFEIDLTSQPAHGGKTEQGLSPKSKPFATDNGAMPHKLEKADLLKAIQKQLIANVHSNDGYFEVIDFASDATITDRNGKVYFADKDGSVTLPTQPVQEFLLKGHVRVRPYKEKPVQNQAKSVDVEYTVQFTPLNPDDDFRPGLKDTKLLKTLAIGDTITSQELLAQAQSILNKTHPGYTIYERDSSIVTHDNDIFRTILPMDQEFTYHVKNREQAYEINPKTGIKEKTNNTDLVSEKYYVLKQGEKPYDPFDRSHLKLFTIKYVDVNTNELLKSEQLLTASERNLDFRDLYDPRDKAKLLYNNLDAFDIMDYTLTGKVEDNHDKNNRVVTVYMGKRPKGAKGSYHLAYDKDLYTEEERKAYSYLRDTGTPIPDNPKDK

[8] = test system: Streptococcus sp. 'group A'; test: Streptococcus pyogenes SK(-)GAS viability under kanamycin – luminescence, BacTiterGlo, confirmation, counter-screen for streptokinase expression inhibitor project, dose response (AID 1900); type: functional, organism-based
[9] = Luminescence Cell-Based Dose Response HTS to Identify Inhibitors of 5'UTR Stem-Loop Driven Prion Protein mRNA Translation in H4 Neuroglioblastoma Cells. [Related pubchem assays: 1827 (Project Summary), 1813 (Primary HTS)]; type: functional

Sequence of Cytochrome P450 3A4 (P08684 whole entry): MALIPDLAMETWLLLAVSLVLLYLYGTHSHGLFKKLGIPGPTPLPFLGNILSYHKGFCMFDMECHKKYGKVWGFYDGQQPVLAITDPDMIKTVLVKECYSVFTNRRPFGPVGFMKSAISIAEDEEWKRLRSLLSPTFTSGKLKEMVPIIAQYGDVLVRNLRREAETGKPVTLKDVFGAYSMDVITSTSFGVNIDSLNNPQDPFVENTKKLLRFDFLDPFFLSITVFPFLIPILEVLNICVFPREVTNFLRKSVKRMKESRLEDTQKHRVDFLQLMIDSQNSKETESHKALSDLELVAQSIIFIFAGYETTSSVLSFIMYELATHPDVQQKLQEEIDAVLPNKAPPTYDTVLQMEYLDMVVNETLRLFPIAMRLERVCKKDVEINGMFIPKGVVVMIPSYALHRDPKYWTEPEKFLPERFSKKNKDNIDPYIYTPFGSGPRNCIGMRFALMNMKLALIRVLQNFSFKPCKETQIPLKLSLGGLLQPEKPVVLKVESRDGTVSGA
T1 sequence (P11940 whole entry, the tested form may be a part): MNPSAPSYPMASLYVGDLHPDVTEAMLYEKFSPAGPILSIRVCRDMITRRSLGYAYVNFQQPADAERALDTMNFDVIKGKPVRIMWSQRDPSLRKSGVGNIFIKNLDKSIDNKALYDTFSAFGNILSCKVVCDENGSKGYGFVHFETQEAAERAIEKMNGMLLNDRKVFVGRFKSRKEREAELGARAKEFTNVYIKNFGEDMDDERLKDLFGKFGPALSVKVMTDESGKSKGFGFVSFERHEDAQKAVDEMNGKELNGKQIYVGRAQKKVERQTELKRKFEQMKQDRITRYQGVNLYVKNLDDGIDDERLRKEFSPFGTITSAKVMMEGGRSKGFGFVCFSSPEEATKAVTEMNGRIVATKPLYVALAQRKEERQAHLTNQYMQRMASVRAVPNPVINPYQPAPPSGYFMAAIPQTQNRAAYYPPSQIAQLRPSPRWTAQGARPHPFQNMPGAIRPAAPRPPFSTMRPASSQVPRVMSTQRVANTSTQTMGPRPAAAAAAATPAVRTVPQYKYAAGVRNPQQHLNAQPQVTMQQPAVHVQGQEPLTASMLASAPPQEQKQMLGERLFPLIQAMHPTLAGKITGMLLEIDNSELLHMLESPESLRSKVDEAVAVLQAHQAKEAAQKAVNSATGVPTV
Sequence of Cytochrome P450 2C19 (P33261 whole entry): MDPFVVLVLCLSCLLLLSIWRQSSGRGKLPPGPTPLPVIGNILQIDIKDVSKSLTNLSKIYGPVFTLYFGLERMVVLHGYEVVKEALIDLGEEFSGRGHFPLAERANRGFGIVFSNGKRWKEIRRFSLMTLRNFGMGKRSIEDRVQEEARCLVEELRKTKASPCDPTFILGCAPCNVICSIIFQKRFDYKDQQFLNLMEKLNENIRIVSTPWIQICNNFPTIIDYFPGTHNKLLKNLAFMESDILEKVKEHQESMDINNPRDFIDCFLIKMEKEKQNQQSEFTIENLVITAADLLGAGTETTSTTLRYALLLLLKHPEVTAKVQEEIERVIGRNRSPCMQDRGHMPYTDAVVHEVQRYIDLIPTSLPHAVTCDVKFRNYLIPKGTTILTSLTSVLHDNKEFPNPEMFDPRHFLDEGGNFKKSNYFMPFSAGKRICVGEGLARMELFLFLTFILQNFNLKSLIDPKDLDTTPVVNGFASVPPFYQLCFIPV
Sequence of Cytochrome P450 2C9 (P11712 whole entry): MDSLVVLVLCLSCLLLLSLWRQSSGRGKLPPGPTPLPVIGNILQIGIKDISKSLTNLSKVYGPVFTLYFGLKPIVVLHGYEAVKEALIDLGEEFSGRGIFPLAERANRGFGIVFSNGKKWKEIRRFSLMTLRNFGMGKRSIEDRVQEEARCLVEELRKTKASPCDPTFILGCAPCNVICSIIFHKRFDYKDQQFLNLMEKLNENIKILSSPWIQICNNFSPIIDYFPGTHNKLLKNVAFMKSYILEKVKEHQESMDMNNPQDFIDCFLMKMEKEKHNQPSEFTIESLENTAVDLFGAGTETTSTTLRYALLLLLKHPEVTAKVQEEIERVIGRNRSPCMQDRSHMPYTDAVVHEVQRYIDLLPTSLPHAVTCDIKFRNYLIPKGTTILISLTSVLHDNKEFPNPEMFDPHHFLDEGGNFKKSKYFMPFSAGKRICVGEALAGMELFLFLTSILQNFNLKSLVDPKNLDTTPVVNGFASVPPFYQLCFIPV
Sequence of Cytochrome P450 2D6 (P10635 whole entry): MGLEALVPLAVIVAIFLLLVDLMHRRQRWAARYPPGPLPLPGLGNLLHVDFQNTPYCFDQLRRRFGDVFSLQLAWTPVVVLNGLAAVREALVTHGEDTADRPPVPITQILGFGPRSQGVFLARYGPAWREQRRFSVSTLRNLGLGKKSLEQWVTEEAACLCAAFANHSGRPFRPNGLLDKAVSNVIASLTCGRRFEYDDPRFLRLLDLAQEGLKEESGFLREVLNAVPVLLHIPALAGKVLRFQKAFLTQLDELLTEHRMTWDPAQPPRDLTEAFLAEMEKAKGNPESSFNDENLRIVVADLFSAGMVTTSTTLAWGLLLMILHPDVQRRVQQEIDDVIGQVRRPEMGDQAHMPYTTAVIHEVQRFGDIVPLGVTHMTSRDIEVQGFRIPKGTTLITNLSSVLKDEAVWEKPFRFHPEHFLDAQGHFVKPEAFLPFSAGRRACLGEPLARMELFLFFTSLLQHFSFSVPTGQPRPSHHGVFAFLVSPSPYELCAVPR

CN(C)c1ccc(/N=N\c2cccc3ccoc23)cc1
AC50 (Cytochrome P450 2D6): 3.16 µM (inconclusive)
AC50 (Cytochrome P450 3A4): 3.98 µM (inconclusive)

Oc1cc(O)cc(/C=C\c2ccc(O)c(O)c2)c1
AC50 (Cytochrome P450 3A4): 20 µM (inconclusive)
AC50 (Cytochrome P450 2C9): 31.6 µM (inconclusive)

CCOC(=O)c1sc(=S)n(C)c1NC(=O)c1ccccc1Cl
IC50 [1]: > 66 µM (inactive)
IC50 [2]: > 66 µM (inactive)

COc1ccc(-c2nc3cnc(N(C)C)nc3n(Cc3cccs3)c2=O)cc1
AC50 (Cytochrome P450 3A4): 12.6 µM (inconclusive)

CCC(=O)Nc1ccc(-c2ccc(N3CCN(C)CC3)nn2)cc1
EC50 (H4): 19.2 µM (active)
EC50 [3]: > 120 µM (not active)
EC50 [4]: 15.5 µM (active)

Cc1noc(C)c1C(=O)N1CCC2(CCCN(c3ccncc3)C2)CC1
AC50 (Cytochrome P450 3A4): 31.6 µM (inconclusive)

O=c1c(-c2ccc3c(c2)OCCO3)coc2c(CN3CCOCC3)c(O)ccc12
EC50 (H4): > 120 µM (not active)
EC50 [3]: 42.3 µM (active)
EC50 [4]: 17.7 µM (active)

O=C(CSc1nc(O)c2ccccc2n1)N1CCCCC1
IC50 (H9c2): 10.5 µM (active)

Cc1cccc(OCCCC(=O)Nc2ccc(N3CCCCC3)cc2)c1
AC50 (Cytochrome P450 3A4): 7.08 µM (inconclusive)
AC50 (Cytochrome P450 2C19): 0.355 µM (inconclusive)

C1=C(c2ccccc2)CCN(c2nc3ccccc3n3cnnc23)C1
IC50 (H9c2): > 79 µM (inactive)

Cc1ccc(C(=O)CSc2nc(O)c3ccccc3n2)cc1
IC50 (H9c2): > 79 µM (inactive)

CC1(C)CC2=NC(SCC(N)=O)=C(C#N)C3(CCCCC3)C2=C(O)C1
IC50 [1]: > 66 µM (inactive)
IC50 [2]: > 66 µM (inactive)

COc1ccc(C(C)(C)C)cc1NC(=O)c1cncc(Br)c1
AC50 (Cytochrome P450 3A4): 11.2 µM (inconclusive)
AC50 (Cytochrome P450 2C19): 10 µM (inconclusive)

Cc1cccc(N(NC(=O)C(C)(C)O)C(=O)c2ccccc2)c1
AC50 (Cytochrome P450 3A4): 17.8 µM (inconclusive)
AC50 (Cytochrome P450 2C9): 39.8 µM (inconclusive)

c1ccc(-c2noc(C34CC5CC(CC(C5)C3)C4)n2)nc1
EC50 (H4): 48 µM (active)
EC50 [3]: 0.122 µM (active)
EC50 [4]: 30.3 µM (active)

NC[C@@H]1O[C@H](C23CC4CC(CC(C4)C2)C3)Cc2c1ccc(O)c2O
AC50 (Cytochrome P450 3A4): 20 µM (inconclusive) and 31.6 µM (inconclusive)

O=C(/C=C/c1ccco1)N1CCN(c2ncccn2)CC1
IC50 [1]: > 66 µM (inactive)
IC50 [2]: > 66 µM (inactive)

O=C1NC2=C(C(=O)CCC2)C(c2ccccc2[N+](=O)[O-])N1 (configuration not stated)
IC50 [1]: > 66 µM (inactive)
IC50 [2]: > 66 µM (inactive)

Cc1cc(NC(=O)COC(=O)Cn2[nH]c(=O)c3ccccc3c2=O)c([N+](=O)[O-])cc1C
IC50 (H9c2): 31.7 µM (inactive)

O=C(Nc1ccc(C(=O)N2CCOCC2)cc1)c1cnn2c(C(F)F)cc(-c3ccccc3)nc12
IC50 (H9c2): > 79 µM (inactive)
EC50 [5]: > 260 µM (inactive)

CCOC(=O)c1ccc(-c2ccc3ncnc(NCc4csc(C)n4)c3c2)o1
IC50 (H9c2): > 79 µM (inactive)

Cc1cnc(CNc2ccnc(-c3ccccc3Cl)n2)cn1
AC50 (Cytochrome P450 3A4): 10 µM (inconclusive)
AC50 (Cytochrome P450 2C19): 39.8 µM (inconclusive)

Cc1cc2cc(CNC(=O)c3ccc(Br)o3)ccc2n1C
IC50 [1]: > 66 µM (inactive)
IC50 [2]: > 66 µM (inactive)

Cc1cccc(C)c1N=C(S)Nc1ccc(Cl)c(Cl)c1
IC50 [1]: > 66 µM (inactive)
IC50 [2]: > 66 µM (inactive)

NN=C(S)Nc1ccc(OC(F)(F)F)cc1
AC50 (INS1): > 260 µM (inactive)

COc1ccc(OC)c(NC(=O)CSC2=NCCS2)c1
IC50 [1]: > 66 µM (inactive)
IC50 [2]: > 66 µM (inactive)

CCCC1c2ccc(C)n2CCN1C(=O)Nc1ccccc1Cl (configuration not stated)
EC50 (H4): > 120 µM (not active)
EC50 [3]: 23 µM (active)
EC50 [4]: 14.2 µM (active)

O=C(NNC(=S)Nc1ccc(Br)cc1Cl)c1ccncc1
IC50 [1]: > 66 µM (inactive)
IC50 [2]: > 66 µM (inactive)

CC(C)(C)C(=O)NC(Nc1cccc2cccnc12)C(Cl)(Cl)Cl (configuration not stated)
AC50 (Cytochrome P450 2D6): 15.8 µM (inconclusive)
AC50 (Cytochrome P450 3A4): 7.08 µM (inconclusive)
AC50 (INS1): 23.6 µM (active)

COc1cc(/C=N/NC(=O)c2cccnc2)ccc1OC(=O)c1cc(OC)c(OC)c(OC)c1
AC50 (INS1): 1.1 µM (active)

c1coc(CSc2ncnc3c2oc2ccccc23)c1
EC50 (H4): 6.38 µM (active)
EC50 [3]: 3.52 µM (active)
EC50 [4]: 4.94 µM (active)

C=C(C)CN1CC[C@@]23c4c5ccc(O)c4O[C@H]2c2[nH]c4ccccc4c2C[C@]3(O)[C@@H]1C5
AC50 (Cytochrome P450 3A4): 31.6 µM (inconclusive)
AC50 (Cytochrome P450 2C19): 3.16 µM (inconclusive)

CO[C@H]1COC(=O)[C@H](C)COC(=O)[C@@H](Cc2ccccc2)NC(=O)C/C=C\[C@H]1C
AC50 (Cytochrome P450 3A4): 6.31 µM (inconclusive)

NCCNS(=O)(=O)c1ccc(N)cc1
AC50 (Cytochrome P450 3A4): 5.01 µM (inconclusive)

O=C(CN(Cc1ccco1)Cc1ccco1)Nc1cc(S(=O)(=O)N2CCCCC2)ccc1Cl
AC50 (INS1): 7.48 µM (active)

O=C(COC(=O)Cn1[nH]c(=O)c2ccccc2c1=O)NNC(=O)c1ccccc1
IC50 (H9c2): > 79 µM (inactive)

COc1cc(/C=N/NC(=O)c2ccncc2)ccc1OC(=O)c1ccccc1Cl
IC50 (H9c2): > 79 µM (inactive)

CC(=O)Nc1nc(NC(=O)/C=C/c2ccccc2)n(-c2ccccc2)n1
EC50 [6]: 15.7 µM (active)
EC50 (Streptococcus): 33.9 µM (active)
EC50 [7]: 14.2 µM (active)
EC50 (Streptokinase A): > 150 µM (not active)
EC50 [8]: 2.47 µM (active)
EC50 [9]: 13.7 µM (active)

Fc1ccc(N2Cc3ccsc3C=N2)cc1
EC50 (H4): > 120 µM (not active)
EC50 [3]: 37.1 µM (active)
EC50 [4]: 23.9 µM (active)

Cc1ccc(C)c(C(=O)COC(=O)Cn2[nH]c(=O)c3ccccc3c2=O)c1
IC50 (H9c2): 63.5 µM (inactive)

O=C(C[C@H]1C/C=C\CC[C@H](Cc2ccc(F)cc2)C(=O)O[C@H](c2ccccc2)CNC1=O)N[C@H](CO)Cc1ccccc1
IC50 (H9c2): 25.3 µM (active)

COc1ccc(CCNc2nc(-c3cccnc3)nc3ccccc23)cc1OC
IC50 (H9c2): > 79 µM (inactive)
